# Earlier results as cited in PMC11235333, “Glucagon-like peptide-1 stimulates acute secretion of pro-atrial natriuretic peptide from the isolated, perfused pig lung exposed to warm ischemia” (Frontiers in Transplantation, 2022).
# Test system: lipopolyssacharide induced endotoxemia in rats
# Conditions: lipopolysaccharide induced endotoxemia, after 3 h, ref Yanay et al.
# Description: In studies with 24 h EVLP and transplantation of donor lungs, a rise of IL-8 concentration, proportional to the duration of warm ischaemia, was observed ([78], [79]). In the majority of studies investigating the anti-inflammatory effects of GPL-1 in the lungs, treatment was given more than 6 ...
substance,measurement,value
exendin-4,Inflammatory cytokines,"decreased IL-1α, IL-1β, IL-6, TNFα and IFNγ but not IL-10"
